The target in assay [1] is T1, Mdm2/p53 binding (GST-Mdm2 / His-p53) (Homo sapiens, UniProt Q00987, L33E).
T1 construct: Mdm2 partial protein having Mdm2 amino acids at positions 25 to 108
Description: Mdm2/p53 binding assay (HTRF, His-p53 and GST-Mdm2). The conditions noted are these: His-p53 (aa 1-132) and GST-Mdm2 (aa 25-108, L33E) 6.25 nM each; 25°C, 1 hour; values given as ranges. In short, it runs like this: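 Binding was detected by HTRF (ex 320 nm, em 620/665 nm) after 1 h at 25 °C, using Eu-cryptate anti-GST and XL665 anti-His antibodies. The protein pair was GST-Mdm2 (residues 25–108, L33E) with His-p53 (residues 1–132), each 6.25 nM in the protein dilution. T/C used no-compound control and no-p53 background, and IC50 came from sigmoid fitting.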

Assay [2] relates to human lung cancer-derived cell line NCI-H460 having wild-type p53. Briefly: Cell growth inhibition assay (MTT). The conditions noted are these: 72 h, NCI-H460 cells, 3 days culture, values given as ranges, read-out: 50% growth inhibition concentration (GI50 value). Type of assay: cell-based. As for the experimental part:
A cell growth inhibition assay was conducted using a human lung cancer-derived cell line NCI-H460 having wild-type p53.
NCI-H460 cells were suspended in a medium (RPMI1640 medium containing 10% fetal bovine serum) and the suspension was added in an amount of 500 cells/150 μl/well to a 96-well plate. A test compound was dissolved in DMSO and this solution was diluted with medium to prepare a sample solution (DMSO concentration: 1% or lower). On the next day, medium nonsupplemented with the test compound, or the sample solution, was added in an amount of 50 μl/well. Cells were then cultured at 37° ° C. for 3 days in a 5% CO2 atmosphere.
An MTT assay was conducted immediately after the nonsupplemented medium or the sample solution was added. Another MTT assay was conducted after culturing the cells for 3 days. The MIT assays were conducted as shown below.
A 5 mg/ml MTT (3-(4,5-dimethylthiazol-2-yl)-2,5-diphenyltetrazolium bromide, Sigma-Aldrich Co., M-2128) solution was prepared using a phosphate buffer solution (Dulbecco's Phosphate-buffered Saline). This MIT solution was added in an amount of 20 μl/well. Then the plate was cultured at 37° ° C. for 4 hours in a 5% CO2 atmosphere. The plate was centrifuged at 1200 rpm for 5 minutes and then the culture supernatant was removed by aspiration using a dispenser. DMSO was added in an amount of 150 μl/well to dissolve generated formazan. The plate was stirred using a plate mixer for uniform color development from each well. The absorbance of each well was measured at OD 540 nm and at a reference OD (660 nm) using a plate reader (SpectraMax PLUS384, Molecular Devices, CA, USA).
The OD value measured on the day of adding the sample solution was defined as S. The OD value measured three days after addition of the sample solution was defined as T. The OD value measured three days after addition of the DMSO dilution was defined as C. T/C (%) was determined at each concentration according to the formula shown below in order to prepare a dose response curve, from which 50% growth inhibition concentration (GI50 value) was calculated.

Where only a bound is given, the exact number is not on record here.

T1 sequence (Q00987 25-108 L33E): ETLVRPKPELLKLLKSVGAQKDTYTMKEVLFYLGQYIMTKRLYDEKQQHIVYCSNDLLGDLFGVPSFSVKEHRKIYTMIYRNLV

As a reminder, the IC50 is the concentration at which inhibition is half-maximal. A higher IC50 goes with weaker potency in that assay. For the compound `CC1(C)CCC2(CC1)N[C@@H](C(=O)N[C@H]1CC[C@H](c3nnc[nH]3)CC1)[C@H](c1ccnc(Cl)c1F)[C@]21C(=O)Nc2cc(Cl)ccc21` (relative stereo) [Example 32, (3′R, 4′S,5′R)-6″-chloro-4′-(2-chloro-3-fluoropyridin-4-yl)-4,4-dimethyl-2″-oxo-N-[trans-4-(4H-1,2,4-triazol-3-yl)cyclohexyl]-1″,2″-dihydrodispiro[cyclohexane-1,2′-pyrrolidine-3′,3″-indole]-5′-carboxamide], the IC50 in assay [1] lay within 50 to 100 nM. The GI50 in assay [2] lay in the range of 100 to 500 nM.

As for `CC(O)[C@@H]1CC[C@@H](NC(=O)[C@@H]2NC3(CCC(C)(C)CC3)[C@@]3(C(=O)Nc4cc(Cl)ccc43)C2c2ccnc(Cl)c2)CO1` (single isomer, unassigned) [Example 77], the IC50 in assay [1] lay in the range of 1 to 50 nM. Further, in assay [2], the GI50 fell in the range of 100 to 500 nM.

In assay [1], `CC(O)[C@@H]1CC[C@@H](NC(=O)[C@@H]2NC3(CCC(C)(C)CC3)[C@@]3(C(=O)Nc4cc(Cl)ccc43)[C@H]2c2ccnc(Cl)c2F)CO1` (single isomer, unassigned) [Example 93] gave an IC50 of 50 to 100 nM. Further, in assay [2], the GI50 lay within 100 to 500 nM.

In turn, `CC1(C)CCC2(CC1)N[C@@H](C(=O)N[C@@H]1CC[C@@H](CO)OC1)[C@H](c1cccc(Cl)c1F)[C@]21C(=O)Nc2nc(Cl)ccc21` [Example 3, (3′R, 4′S,5′R)-6″-chloro-4′-(3-chloro-2-fluorophenyl)-N-[(3R,6S)-6-(hydroxymethyl)tetrahydro-2H-pyran-3-yl]-4,4-dimethyl-2″-oxo-1″,2″-dihydrodispiro[cyclohexane-1,2′-pyrrolidine-3′,3″-pyrrolo[2,3-b]pyridine]-5′-carboxamide] gave an IC50 in assay [1] of 1 to 50 nM. Further, the GI50 in assay [2] fell in the range of 500 to 1000 nM.

In assay [1], `CC1(C)CCC2(CC1)N[C@@H](C(=O)N[C@@H]1CC[C@@H](CO)OC1)[C@H](c1cccc(Cl)c1F)[C@]21C(=O)Nc2cc(Cl)ccc21` [Example 8, (3′R, 4′S,5′R)-6″-chloro-4′-(3-chloro-2-fluorophenyl)-N-[(3R,6S)-6-(hydroxymethyl)tetrahydro-2H-pyran-3-yl]-4,4-dimethyl-2″-oxo-1″,2″-dihydrodispiro[cyclohexane-1,2′-pyrrolidine-3′,3″-indole]-5′-carboxamide] came in with a half-inhibitory concentration (IC50) of 1 to 50 nM. For the same compound, in assay [2], the GI50 is 100 to 500 nM.

In assay [1], `CC1(C)CCC2(CC1)N[C@@H](C(=O)N[C@@H]1CC[C@@H](C(C)(C)O)OC1)[C@H](c1cccc(Cl)c1F)[C@]21C(=O)Nc2nc(Cl)ccc21` [Example 11, (3′R, 4′S,5′R)-6″-chloro-4′-(3-chloro-2-fluorophenyl)-N-[(3R,6S)-6-(1-hydroxy-1-methylethyl)tetrahydro-2H-pyran-3-yl]-4,4-dimethyl-2″-oxo-1″,2″-dihydrodispiro[cyclohexane-1,2′-pyrrolidine-3′,3″-pyrrolo[2,3-b]pyridine]-5′-carboxamide] gave an IC50 of 1 to 50 nM. Further, the GI50 in assay [2] was in the range of 500 to 1000 nM.

The compound `CC1(C)CCC2(CC1)N[C@@H](C(=O)N[C@@H]1CC[C@@H](CO)OC1)[C@H](c1ccnc(Cl)c1)[C@]21C(=O)Nc2cc(Cl)ccc21` [Example 13, (3′R, 4′R, 5′R)-6″-chloro-4′-(2-chloropyridin-4-yl)-N-[(3R,6S)-6-(hydroxymethyl)tetrahydro-2H-pyran-3-yl]-4,4-dimethyl-2″-oxo-1″,2″-dihydrodispiro[cyclohexane-1,2′-pyrrolidine-3′,3″-indole]-5′-carboxamide] showed an IC50 in assay [1] of 1 to 50 nM. Also, in assay [2], the GI50 lay within 100 to 500 nM.

As to `CC1(C)CCC2(CC1)N[C@@H](C(=O)N[C@H]1CC[C@H](O)CC1)[C@H](c1cc(F)cc(Cl)c1)[C@]21C(=O)Nc2cc(Cl)ccc21` [Example 14, (3′R, 4′R, S′R)-6″-chloro-4′-(3-chloro-5-fluorophenyl)-N-(trans-4-hydroxycyclohexyl)-4,4-dimethyl-2″-oxo-1″,2″-dihydrodispiro[cyclohexane-1,2′-pyrrolidine-3′,3″-indole]-5′-carboxamide], the IC50 in assay [1] is 100 to 500 nM. Also, the GI50 in assay [2] is 500 to 1000 nM.

Regarding `CC1(C)CCC2(CC1)N[C@@H](C(=O)N[C@@H]1CC[C@@H](C(C)(C)O)OC1)[C@H](c1ccnc(Cl)c1F)[C@]21C(=O)Nc2cc(Cl)ccc21` [Example 17, (3′R, 4′S,5′R)-6″-chloro-4′-(2-chloro-3-fluoropyridin-4-yl)-N-[(3R,6S)-6-(1-hydroxy-1-methylethyl)tetrahydro-2H-pyran-3-yl]-4,4-dimethyl-2″-oxo-1″,2″-dihydrodispiro[cyclohexane-1,2′-pyrrolidine-3′,3″-indole]-5′-carboxamide], the half-inhibitory concentration (IC50) in assay [1] is 50 to 100 nM. Besides, the GI50 in assay [2] lay within 100 to 500 nM.

On to `CC1(C)CCC2(CC1)N[C@@H](C(=O)N[C@@H]1CC[C@@H](CO)OC1)[C@H](c1ccnc(Cl)c1F)[C@]21C(=O)Nc2cc(Cl)ccc21` [Example 20, (3′R, 4′S,5′R)-6″-chloro-4′-(2-chloro-3-fluoropyridin-4-yl)-N-[(3R,6S)-6-(hydroxymethyl)tetrahydro-2H-pyran-3-yl]-4,4-dimethyl-2″-oxo-1″,2″-dihydrodispiro[cyclohexane-1,2′-pyrrolidine-3′,3″-indole]-S′-carboxamide], for which, in assay [1], the IC50 was 1 to 50 nM. In assay [2], the GI50 was < 100 nM.

In assay [1], `CC1(C)CCC2(CC1)N[C@@H](C(=O)N[C@@H]1CC[C@@H](CO)OC1)[C@H](c1ccnc(Cl)c1F)[C@]21C(=O)Nc2cc(Cl)c(F)cc21` [Example 23, (3′R, 4′S,5′R)-6″-chloro-4′-(2-chloro-3-fluoropyridin-4-yl)-5″-fluoro-N-[(3R,6S)-6-(hydroxymethyl)tetrahydro-2H-pyran-3-yl]-4,4-dimethyl-2″-oxo-1″,2″-dihydrodispiro[cyclohexane-1,2′-pyrrolidine-3′,3″-indole]-5′-carboxamide] returned an IC50 of 1 to 50 nM. In addition, the GI50 in assay [2] was 100 to 500 nM.

For `CC1(C)CCC2(CC1)N[C@@H](C(=O)N[C@@H]1CC[C@@H](CO)OC1)[C@H](c1ccnc(Cl)c1F)[C@]21C(=O)Nc2nc(Cl)ccc21` [Example 25, (3′R, 4′S,5′R)-6″-chloro-4′-(2-chloro-3-fluoropyridin-4-yl)-N-[(3R,6S)-6-(hydroxymethyl)tetrahydro-2H-pyran-3-yl]-4,4-dimethyl-2″-oxo-1″,2″-dihydrodispiro[cyclohexane-1,2′-pyrrolidine-3′,3″-pyrrolo[2,3-b]pyridine]-5′-carboxamide], the IC50 in assay [1] lay within 1 to 50 nM. The GI50 in assay [2] fell in the range of 500 to 1000 nM.

Regarding `CC1(C)CCC2(CC1)N[C@@H](C(=O)N[C@@H]1CC[C@@H](CO)OC1)[C@H](c1cc(Cl)cc(CO)c1)[C@]21C(=O)Nc2cc(Cl)ccc21` [Example 28, (3′R, 4′R, 5′R)-6″-chloro-4′-[3-chloro-5-(hydroxymethyl)phenyl]-N-[(3R,6S)-6-(hydroxymethyl)tetrahydro-2H-pyran-3-yl]-4,4-dimethyl-2″-oxo-1″,2″-dihydrodispiro[cyclohexane-1,2′-pyrrolidine-3′,3″-indole]-5′-carboxamide], in assay [1], the IC50 lay within 1 to 50 nM. The GI50 in assay [2] fell in the range of 1000 to 5000 nM.

`CC1(C)CCC2(CC1)N[C@@H](C(=O)N[C@H]1CO[C@H](CO)[C@@H](O)C1)[C@H](c1ccnc(Cl)c1F)[C@]21C(=O)Nc2cc(Cl)ccc21` [Example 29] registered an IC50 in assay [1] of 1 to 50 nM. The GI50 in assay [2] fell in the range of 1000 to 5000 nM.

`CC1(C)CCC2(CC1)N[C@@H](C(=O)N[C@H]1CO[C@H](CO)[C@@H](O)C1)[C@H](c1cccc(Cl)c1F)[C@]21C(=O)Nc2nc(Cl)ccc21` [Example 30, (3′R, 4′S,5′R)-6″-chloro-4′-(3-chloro-2-fluorophenyl)-N-[(3R,5S,6R)-5-hydroxy-6-(hydroxymethyl)tetrahydro-2H-pyran-3-yl]-4,4-dimethyl-2″-oxo-1″,2″-dihydrodispiro[cyclohexane-1,2′-pyrrolidine-3′,3″-pyrrolo[2,3-b]pyridine]-5′-carboxamide] came in with an IC50 in assay [1] of 1 to 50 nM. In addition, the GI50 in assay [2] was 1000 to 5000 nM.

The record behind these values is patent US12545685B2 (Daiichi Sankyo Company, Limited, priority 2011, dated 2026).
